# Data published in US20250100993A1, “2-SUBSTITUTED THIAZOLE HSD17B13 INHIBITORS AND USES THEREOF” (Inipharm, Inc., priority 2022, published 2025).
# Molecular target: HSD17B13 (Homo sapiens (Human), UniProt Q7Z5P4)
# Assay: LC/MS estrone detection assay for HSD17B13 activity (estradiol to estrone)
# Format: biochemical
# Settings: estradiol substrate, LC-MS/MS estrone detection
# Experimental: The liquid chromatography/mass spectrometry (LC/MS) estrone detection assay monitors the conversion of estradiol to estrone by HSD17B13. This assay was undertaken in a 96 wp format (Eppendorf deep well Plate 96/500) in an 80 μl reaction volume containing: 4 μM of Estradiol (E2; Cayman; Ser. No. 10/006,315), 6 mM NAD+(Sigma; #N0623) and 30 nM HSD17B13 enzyme (in-house; E. coli expressed His-tagged, purified, soluble protein) in a reaction containing 1M potassium phosphate buffer pH 7.4, with 0.5% vehicle (DMSO). Reactions were incubated for 2 hours at 26.5° C., and estradiol (E2) conversion to estrone (E1) was quantitated by LC-MS/MS based analyte detection for both E2 and E1 using LCMS grade reagents.
# Reactions were terminated by the addition of two volumes of acetonitrile (MeCN; LCMS grade; CAS #75/05/8) containing deuterated (D4)-E1 used as internal standard (Clear Synth; #CS-T-54273; 500 ng/mL final concentration). Samples were applied to pre-prepared Bond Elut-C18 extraction cartridges (3 mL; Agilent; Ser. No. 12/102,028), washed and eluted in MeCN. Eluates were dried under nitrogen and re-suspended in 60% methanol (LCMS grade methanol; CAS #67/56/1) before submission for analysis. Aqueous linearity for E2 and E1 were included for quantification.
# Analysis of samples was undertaken on a XBridge BEH C18 column (Waters; #186003033) using 0.1% Diethyl Amine in MeCN (mobile phase A; DEA CAS #109-89-7) and 0.1% Diethyl Amine in milli-Q water (mobile phase B) in a 3 min gradient allowing 25% B. Analytes were detected in negative mode using MRM analysis, with E2 having a RT of 1.85 min and E1 having a RT of 2 min. Activity of the enzyme, in the absence of NAD+, was used to evaluate specificity of conversion. Enzyme activity in the presence of test samples was expressed as a percentage of the uninhibited enzyme activity, and plotted versus inhibitor concentration. Non-linear regression was performed using a four-parameter logistic model and GraphPad Prism software (GraphPad Software, La Jolla, CA). All assessments were undertaken in duplicate evaluations and pooled during extraction process and subsequently injected as duplicates for LC-MS/MS analysis.
# HSD17B13, sequence (Q7Z5P4 20-300): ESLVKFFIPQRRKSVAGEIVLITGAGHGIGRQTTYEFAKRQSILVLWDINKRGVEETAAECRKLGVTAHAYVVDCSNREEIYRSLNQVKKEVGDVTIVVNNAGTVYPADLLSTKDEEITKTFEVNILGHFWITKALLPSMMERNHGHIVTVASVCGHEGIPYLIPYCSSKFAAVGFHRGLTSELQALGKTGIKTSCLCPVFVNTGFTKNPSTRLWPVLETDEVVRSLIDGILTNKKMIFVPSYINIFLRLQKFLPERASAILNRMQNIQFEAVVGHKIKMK
row,Compound,IC50
1,"Cc1nc(C(=O)NCc2ccccc2C(F)(F)F)c(NC(=O)c2cc(Cl)c(O)c(Cl)c2)s1 [Example 27, 5-(3,5-dichloro-4-hydroxybenzamido)-2-methyl-N-(2-(trifluoromethyl)benzyl)thiazole-4-carboxamide]",100 to 500 nM
2,"O=C(Nc1nn(-c2ccccc2)cc1C(=O)NCc1ccccc1C(F)(F)F)c1cc(Cl)c(O)c(Cl)c1 [Example 9, 3-(3,5-dichloro-4-hydroxybenzamido)-1-phenyl-N-(2-(trifluoromethyl)benzyl)-1H-pyrazole-4-carboxamide]",≤ 100 nM
3,"O=C(Nc1nn(CC(F)(F)F)cc1C(=O)NCc1ccccc1C(F)(F)F)c1cc(Cl)c(O)c(Cl)c1 [Example 49, 3-(3,5-dichloro-4-hydroxybenzamido)-1-(2,2,2-trifluoroethyl)-N-(2-(trifluoromethyl)benzyl)-1H-pyrazole-4-carboxamide]",100 to 500 nM
4,"O=C(Nc1scnc1C(=O)NC1(c2ccccc2)CCC1)c1cc(Cl)c(O)c(Cl)n1 [Example 32, 5-(4,6-dichloro-5-hydroxypicolinamido)-N-(1-phenylcyclobutyl)thiazole-4-carboxamide]",≤ 100 nM
5,"O=C(Nc1n[nH]cc1C(=O)NCc1ccccc1C(F)(F)F)c1cc(Cl)c(O)c(Cl)c1 [Example 3, 3-(3,5-dichloro-4-hydroxybenzamido)-N-(2-(trifluoromethyl)benzyl)-1H-pyrazole-4-carboxamide]",≤ 100 nM
6,"O=C(Nc1scnc1C(=O)NC1(c2ccccc2C(F)(F)F)CC1)c1cc(Cl)c(O)c(Cl)n1 [Example 24, 5-(4,6-dichloro-5-hydroxypicolinamido)-N-(1-(2-(trifluoromethyl)phenyl)cyclopropyl)thiazole-4-carboxamide]",100 to 500 nM
7,"O=C(Nc1scnc1C(=O)N1CCC(C(F)(F)F)CC1)c1cc(Cl)c(O)c(Cl)n1 [Example 44, 4,6-dichloro-5-hydroxy-N-(4-(4-(trifluoromethyl)piperidine-1-carbonyl)thiazol-5-yl)picolinamide]",500 to 1000 nM
8,"O=C(Nc1scnc1C(=O)NCc1c(F)cccc1F)c1cc(Cl)c(O)c(Cl)n1 [Example 33, 5-(4,6-dichloro-5-hydroxypicolinamido)-N-(2,6-difluorobenzyl)thiazole-4-carboxamide]",100 to 500 nM

# Results, then the compound that gave them:
row,IC50,Compound
1,≤ 100 nM,"O=C(Nc1sc(-c2ccccc2)nc1C(=O)NCc1ccccc1C(F)(F)F)c1cc(Cl)c(O)c(Cl)n1 [Example 23, 5-(4,6-dichloro-5-hydroxypicolinamido)-2-phenyl-N-(2 (trifluoromethyl)benzyl)thiazole-4-carboxamide]"
2,1000 to 10000 nM,"O=C(Nc1nn(C2CC2)cc1C(=O)NCc1ccccc1C(F)(F)F)c1cc(Cl)c(O)c(Cl)n1 [Example 54, 4,6-dichloro-N-(1-cyclopropyl-4-((2-(trifluoromethyl)benzyl)carbamoyl)-1H-pyrazol-3-yl)-5-hydroxypicolinamide]"
3,≤ 100 nM,"Cc1ccc(NC(=O)c2cc(Cl)c(O)c(Cl)c2)c2c(=O)n(Cc3ccccc3C(F)(F)F)nnc12 [Example 11, 3,5-dichloro-4-hydroxy-N-(8-methyl-4-oxo-3-(2-(trifluoromethyl)benzyl)-3,4-dihydrobenzo[d][1,2,3]triazin-5-yl)benzamide]"
4,100 to 500 nM,"CCn1c(=O)n(Cc2ccccc2C(F)(F)F)c(=O)c2c(NC(=O)c3cc(Cl)c(O)c(Cl)n3)cccc21 [Example 18, 4,6-dichloro-N-(1-ethyl-2,4-dioxo-3-(2-(trifluoromethyl)benzyl)-1,2,3,4-tetrahydroquinazolin-5-yl)-5-hydroxypicolinamide]"
5,100 to 500 nM,"Cn1c(=O)n(Cc2ccccc2C(F)(F)F)c(=O)c2c(NC(=O)c3cc(Cl)c(O)c(Cl)n3)ccc(F)c21 [Example 19, 4,6-dichloro-N-(8-fluoro-1-methyl-2,4-dioxo-3-(2-(trifluoromethyl)benzyl)-1,2,3,4-tetrahydroquinazolin-5-yl)-5-hydroxypicolinamide]"
6,500 to 1000 nM,"O=C(Nc1cccc2c1c(=O)n(Cc1ccccc1C(F)(F)F)c(=O)n2C1CC1)c1cc(Cl)c(O)c(Cl)n1 [Example 56, 4,6-dichloro-N-(1-cyclopropyl-2,4-dioxo-3-(2-(trifluoromethyl)benzyl)-1,2,3,4-tetrahydroquinazolin-5-yl)-5-hydroxypicolinamide]"
7,≤ 100 nM,"O=C(Nc1ccc(-c2ccccc2)nc1C(=O)NCc1ccccc1OC(F)(F)F)c1cc(Cl)c(O)c(Cl)n1 [Example 58, 4,6-dichloro-5-hydroxy-N-(6-phenyl-2-((2-(trifluoromethoxy)benzyl)carbamoyl)pyridin-3-yl)picolinamide]"
8,100 to 500 nM,"CN(Cc1ccccc1C(F)(F)F)C(=O)c1ncsc1NC(=O)c1cc(Cl)c(O)c(Cl)n1 [Example 25, 5-(4,6-dichloro-5-hydroxypicolinamido)-N-methyl-N-(2-(trifluoromethyl)benzyl)thiazole-4-carboxamide]"
9,100 to 500 nM,"Cc1nc2c(F)ccc(NC(=O)c3cc(Cl)c(O)c(Cl)n3)c2c(=O)n1[C@H]1CC[C@@H]1c1ccccc1 [Example 15, 4,6-dichloro-N-(8-fluoro-2-methyl-4-oxo-3-((1S,2R)-2-phenylcyclobutyl)-3,4-dihydroquinazolin-5-yl)-5-hydroxypicolinamide]"
10,100 to 500 nM,"O=C(Nc1cccnc1C(=O)NCc1ccccc1OC(F)(F)F)c1cc(Cl)c(O)c(Cl)n1 [Example 52, 4,6-dichloro-5-hydroxy-N-(2-((2-(trifluoromethoxy)benzyl)carbamoyl)pyridin-3-yl)picolinamide]"
11,1000 to 10000 nM,"O=C(Nc1ncc(C(=O)NCc2ccccc2C(F)(F)F)s1)c1cc(Cl)c(O)c(Cl)n1 [Example 28, 2-(4,6-dichloro-5-hydroxypicolinamido)-N-(2-(trifluoromethyl)benzyl)thiazole-5-carboxamide]"

# Same assay, conditions: estradiol substrate, LCMS; read-out: HSD17B13 Inhibition_Estradiol Substrate_LCMS: Ki
row,Compound,Ki
1,O=C(Nc1sc(-c2cncc(F)c2)nc1C(=O)NCc1ccccc1C(F)(F)F)c1cc(Cl)c(O)c(Cl)c1 [Example 75],≤ 50 nM
2,"O=C(Nc1sc(N2CCS(=O)(=O)CC2)nc1C(=O)NCc1ccccc1C(F)(F)F)c1cc(Cl)c(O)c(Cl)c1 [Example 79, 5-(3,5-dichloro-4-hydroxybenzamido)-2-(1,1-dioxidothiomorpholino)-N-(2-(trifluoromethyl)benzyl)thiazole-4-carboxamide]",100 to 500 nM
3,O=C(Nc1sc(C2CCCCC2)nc1C(=O)NCc1ccccc1C(F)(F)F)c1cc(Cl)c(O)c(Cl)c1 [Example 83],≤ 50 nM
4,O=C(Nc1sc(-c2ccccc2)nc1C(=O)NCC(F)(F)F)c1cc(Cl)c(O)c(Cl)n1 [Example 72],100 to 500 nM
5,CN1CCC(c2nc(C(=O)NCc3ccccc3C(F)(F)F)c(NC(=O)c3cc(Cl)c(O)c(Cl)c3)s2)CC1 [Example 87],100 to 500 nM
6,"O=C(Nc1sc(-c2ccccc2F)nc1C(=O)NCC12CC(C1)C2)c1cc(F)c(O)c(Cl)c1 [Example 106, N-(bicyclo[1.1.1]pentan-1-ylmethyl)-5-(3-chloro-5-fluoro-4-hydroxybenzamido)-2-(2-fluorophenyl)thiazole-4-carboxamide]",≤ 50 nM
7,O=C(Nc1sc(C2CCCCC2)nc1C(=O)NCc1ccccc1C(F)(F)F)c1cc(Cl)c(O)c(Cl)n1 [Example 84],≤ 50 nM

# Now from value to compound:
row,Ki,Compound
1,100 to 500 nM,"O=C(Nc1sc(N2CCOCC2)nc1C(=O)NCc1ccccc1C(F)(F)F)c1cc(Cl)c(O)c(Cl)n1 [Example 80, 5-(4,6-dichloro-5-hydroxypicolinamido)-2-morpholino-N-(2-(trifluoromethyl)benzyl)thiazole-4-carboxamide]"
2,≤ 50 nM,"O=C(Nc1sc(-c2ccccc2F)nc1C(=O)NCc1ccccc1C(F)(F)F)c1cc(Cl)c(O)c(F)n1 [Example 107, 5-(4-chloro-6-fluoro-5-hydroxypicolinamido)-2-(2-fluorophenyl)-N-(2-(trifluoromethyl)benzyl)thiazole-4-carboxamide]"
3,≤ 50 nM,O=C(Nc1sc(-c2ccc[nH]c2=O)nc1C(=O)NCc1ccccc1C(F)(F)F)c1cc(Cl)c(O)c(Cl)n1 [Example 74]
4,≤ 50 nM,O=C(Nc1sc(-c2cc[nH]n2)nc1C(=O)NCc1ccccc1C(F)(F)F)c1cc(Cl)c(O)c(Cl)n1 [Example 71]
5,100 to 500 nM,"CN1CC=C(c2nc(C(=O)NCc3ccccc3C(F)(F)F)c(NC(=O)c3cc(Cl)c(O)c(Cl)n3)s2)CC1 [Example 85, 5-(4,6-dichloro-5-hydroxypicolinamido)-2-(1-methyl-1,2,3,6-tetrahydropyridin-4-yl)-N-(2-(trifluoromethyl)benzyl) thiazole-4-carboxamide]"
6,100 to 500 nM,"CN1CCC(c2nc(C(=O)NCc3ccccc3C(F)(F)F)c(NC(=O)c3cc(Cl)c(O)c(Cl)n3)s2)CC1 [Example 86, 5-(4,6-dichloro-5-hydroxypicolinamido)-2-(1-methylpiperidin-4-yl)-N-(2-(trifluoromethyl)benzyl)thiazole-4-carboxamide]"
